Conditions: rat, in vivo; for AUC0-6 h / Cmax / Tmax: 6 mg/kg

| Structure (SMILES) | AUC0-6 h (Sprague-Dawley, po) | Cmax (Sprague-Dawley, po) | Tmax (Sprague-Dawley, po) | time to reach maximum plasma concentration after administration (Sprague-Dawley, po) | Exposure Ratio AUC (Sprague-Dawley, po) | Exposure Ratio Cmax (Sprague-Dawley, po) | AUC compared to dextrorphan tartrate (po) | oral dextrorphan bioavailability / exposure compared to dextrorphan tartrate (po) | Cmax compared to dextrorphan tartrate (po) | dextrorphan AUC0-6h, times higher compared to dextrorphan tartrate (po) | dextrorphan Cmax, times higher compared to dextrorphan tartrate (po) | steadiness of plasma concentration | fold increase in AUC0-6h compared to dextrorphan tartrate (Sprague-Dawley, po) | fold increase in Cmax compared to dextrorphan tartrate (Sprague-Dawley, po) | oral bioavailability compared to the other diastereomer of the same prodrug (po) |
| --- | --- | --- | --- | --- | --- | --- | --- | --- | --- | --- | --- | --- | --- | --- | --- |
| CC[C@H](C)[C@H](NC(C)=O)C(=O)Oc1ccc2c(c1)[C@]13CCCC[C@@H]1C(C2)N(C)CC3 [3-(N-Ac-L-Ile)-dextrorphan] | 27.4 ng·h/mL | 13.9 ng/mL | 2.2 h |  |  |  |  |  |  |  |  |  |  |  |  |
| CN1CC[C@]23CCCC[C@H]2[C@H]1Cc1ccc(O)cc13 [Dextrorphan, (+)-17-methylmorphinan-3-ol] |  |  |  | approximately 30 minutes |  |  |  |  |  |  |  |  |  |  |  |
| CC(C)[C@H](N)C(=O)N[C@H](C(=O)Oc1ccc2c(c1)[C@]13CCCC[C@@H]1C(C2)N(C)CC3)C(C)C [3-(L-Val-L-Val)-dextrorphan] | 78.5 ng·h/mL | 98.9 ng/mL | 0.5 h |  | 85% | 128% | slightly lower | good oral bioavailability |  |  |  |  |  |  |  |
| CC(=O)N[C@H](C(=O)Oc1ccc2c(c1)[C@]13CCCC[C@@H]1C(C2)N(C)CC3)C(C)C [3-(N-Ac-L-Val)-dextrorphan] | 31.2 ng·h/mL | 12.6 ng/mL | 2.8 h |  | 37% |  |  |  | lower |  |  |  |  |  |  |
| C[C@H](N)C(=O)N[C@@H](C)C(=O)Oc1ccc2c(c1)[C@]13CCCC[C@@H]1C(C2)N(C)CC3 [3-(L-Ala-L-Ala)-dextrorphan] | 88.3 ng·h/mL | 87.3 ng/mL | 0.8 h |  | 147% | 217% | larger |  | larger | about 1.5 times | over 2 times |  |  |  |  |
| CC(=O)N[C@@H](C)C(=O)Oc1ccc2c(c1)[C@]13CCCC[C@@H]1C(C2)N(C)CC3 [3-(N-Ac-L-Ala)-dextrorphan] | 29.6 ng·h/mL | 18.2 ng/mL | 0.7 h |  | 40% | 35% | much smaller | decreasing bioavailability | much smaller |  |  | steadier |  |  |  |
| CC(C)[C@@H](NC(=O)[C@@H](C)N)C(=O)Oc1ccc2c(c1)[C@]13CCCC[C@@H]1C(C2)N(C)CC3 [3-(D-Ala-D-Val)-dextrorphan] |  |  |  |  |  |  | larger | superior | larger |  |  |  |  |  |  |
| CC(C)[C@H](NC(=O)[C@H](N)C(C)C)C(=O)Oc1ccc2c(c1)[C@]13CCCC[C@@H]1C(C2)N(C)CC3 [3-(D-Val-D-Val)-dextrorphan] |  |  |  |  |  |  | larger |  | larger |  |  |  | about 4.5 fold | ~2.7 fold | significantly increased |
| CC(=O)N[C@@H](CCC(=O)O)C(=O)Oc1ccc2c(c1)[C@]13CCCC[C@@H]1C(C2)N(C)CC3 [3-(N-Ac-L-Glu)-dextrorphan] | 18.4 ng·h/mL | 4.8 ng/mL | 1.8 h | around 2 hours | 43% | 14% | much smaller |  | much smaller |  |  | steadier |  |  |  |
| CC(=O)N[C@H](C)C(=O)Oc1ccc2c(c1)[C@]13CCCC[C@@H]1C(C2)N(C)CC3 [3-(N-Ac-D-Ala)-dextrorphan] | 30.8 ng·h/mL | 16.5 ng/mL | 1.6 h |  |  | 32% | much smaller |  | much smaller |  |  | steadier |  |  |  |
| CC[C@@H](C)[C@@H](NC(C)=O)C(=O)Oc1ccc2c(c1)[C@]13CCCC[C@@H]1C(C2)N(C)CC3 [3-(N-Ac-D-Ile)-dextrorphan] | 294.6 ng·h/mL | 81.9 ng/mL | 2.9 h |  | 880% | 672% | much smaller |  | much smaller | > 8 times | over 6 times |  |  |  |  |
| CC(=O)N[C@@H](Cc1ccccc1)C(=O)Oc1ccc2c(c1)[C@]13CCCC[C@@H]1[C@H](C2)N(C)CC3 [3-(N-Ac-L-Phe)-dextrorphan] | 27.7 ng·h/mL | 8.0 ng/mL | 2.8 h |  | 44% | 18% | much smaller |  | much smaller |  |  | much steadier |  |  |  |
| C[C@@H](N)C(=O)N[C@H](C)C(=O)Oc1ccc2c(c1)[C@]13CCCC[C@@H]1C(C2)N(C)CC3 [3-(D-Ala-D-Ala)-dextrorphan] | 24.7 ng·h/mL | 9.6 ng/mL | 2.1 h |  | 59% | 43% | lower | lower | smaller |  |  |  |  |  |  |
| CC(=O)N[C@H](Cc1ccccc1)C(=O)Oc1ccc2c(c1)[C@]13CCCC[C@@H]1[C@H](C2)N(C)CC3 [3-(N-Ac-D-Phe)-dextrorphan] | 19.1 ng·h/mL | 4.7 ng/mL | 5.0 h |  | 30% | 11% | much smaller |  | much smaller |  |  | much steadier |  |  |  |
| CC(=O)N[C@@H](C(=O)Oc1ccc2c(c1)[C@]13CCCC[C@@H]1C(C2)N(C)CC3)C(C)C [3-(N-Ac-D-Val)-dextrorphan] | 467.4 ng·h/mL | 127.7 ng/mL | 3.0 h |  | 556% | 180% | higher |  | higher | more than 5 times | about 1.8 times |  |  |  |  |
| CC(=O)N[C@H](CCC(=O)O)C(=O)Oc1ccc2c(c1)[C@]13CCCC[C@@H]1C(C2)N(C)CC3 [3-(N-Ac-D-Glu)-dextrorphan] | 12.7 ng·h/mL | 3.5 ng/mL | 2.4 h | around 2 hours | 30% | 10% | much smaller |  | much smaller |  |  | steadier |  |  |  |
